From US11912705B2, “Cathinone derivatives, pharmaceutical formulations, and methods” (The Corporation of Mercer University, priority 2020, dated 2024)
Like-named read-outs stand apart in the source and are kept apart here.

How the values were obtained:
human M2R [1] = target: T1, human M2R (Homo sapiens, UniProt P08172); assay: [3H]Scopolamine radioligand competition binding at M2R
T1 construct: host or cells: HEK293 (CRL-1573, ATCC), transient
T1 sequence (P08172 1-466): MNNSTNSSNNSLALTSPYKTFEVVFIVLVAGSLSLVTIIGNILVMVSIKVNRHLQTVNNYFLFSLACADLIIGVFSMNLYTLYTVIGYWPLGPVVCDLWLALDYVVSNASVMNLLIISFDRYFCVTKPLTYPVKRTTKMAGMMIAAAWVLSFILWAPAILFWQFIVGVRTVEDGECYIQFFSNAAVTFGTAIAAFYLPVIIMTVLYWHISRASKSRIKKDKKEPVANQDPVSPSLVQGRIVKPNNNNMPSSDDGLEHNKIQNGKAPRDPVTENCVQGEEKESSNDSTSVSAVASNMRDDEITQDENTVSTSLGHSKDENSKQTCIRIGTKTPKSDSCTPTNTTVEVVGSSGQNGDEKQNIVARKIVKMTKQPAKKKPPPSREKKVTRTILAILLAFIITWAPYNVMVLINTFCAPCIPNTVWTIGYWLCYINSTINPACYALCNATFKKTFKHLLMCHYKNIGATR
Protocol: (§1) Radioligand Competition Binding: Radioligand competition binding assays were conducted using membranes collected from transiently transfected HEK293 cells (P<20 from a procured stock, CRL-1573, ATCC, Manassas, Va., USA) as previously described (Chen, Y., et al. Drug Test Anal 11, 990-998). Briefly, cells ˜90% confluent in 10 cm plates were transfected with 5 μg human M1R, M2R, M3R, M4R or […] cDNA (cDNA resource center, Bloomsburg, Pa., USA) using a lipid-based method (LipoD293 reagent, SignaGen Laboratories, Rockville, Md., USA). Membranes were collected by centrifugation about 48 hours later and stored at −80° C. until used. […] After a 90-minute incubation at room temperature on a shaker, contents from the plates were rapidly filtered through GF/B fiberglass filter mats, pre-soaked with ice cold 50 mM Tris buffer (pH 7.4), using a Microbeta Filtermat-96 cell harvester (Perkin Elmer, Waltham, Mass., USA). Approximately 200 mL of ice cold, 50 mM Tris buffer was then vacuumed through filter mats to wash away unbound radioligand. Filter mats were dried on a hot plate and soaked in Betaplate (Perkin Elmer, Waltham, Mass., USA) scintillation fluid in plastic bags. Bags were sealed and placed in cassettes. Radioactivity was measured in a Microbeta2 Microplate Counter (Perkin Elmer, Waltham, Mass., USA), and counts per minute corresponding to each well on the plates were recorded. For full dose-response competition binding assays, increasing half-log unit concentrations of five unsubstituted PSCs were tested at M2Rs and M1Rs, with the same procedures described above.
(§2) Curve Fitting and Statistical Analyses: All data were analyzed by GraphPad 8.3.0 (San Diego, Calif., USA). Ki values were determined from data fit to both one- and two-site models. […] EC50 and IC50 values from functional assays were determined from data fit to the log(agonist) vs. response (three parameters) or log(inhibitor) vs. response (three parameters) model, respectively. Kb values were calculated from IC50 values using the Cheng-Prusoff equation with modification (see, e.g., Leff, P., and Dougall, I. G. (1993) Trends Pharmacol Sci 14, 110-112): Kb=IC50/((2+([A]/[A50])nH)1/nH−1)

human M3R = target: T2, human M3R (Homo sapiens, UniProt P20309); assay: biochemical; type: binding; details: estimate from 1 and 10 μM concentrations (N = 2); N.C. = <5% displacement of radioligand at 10 μM; read-out: estimated pKi at M3R (converted)
T2 construct: host or cells: HEK293 (CRL-1573, ATCC), transient
T2 sequence (P20309 whole entry): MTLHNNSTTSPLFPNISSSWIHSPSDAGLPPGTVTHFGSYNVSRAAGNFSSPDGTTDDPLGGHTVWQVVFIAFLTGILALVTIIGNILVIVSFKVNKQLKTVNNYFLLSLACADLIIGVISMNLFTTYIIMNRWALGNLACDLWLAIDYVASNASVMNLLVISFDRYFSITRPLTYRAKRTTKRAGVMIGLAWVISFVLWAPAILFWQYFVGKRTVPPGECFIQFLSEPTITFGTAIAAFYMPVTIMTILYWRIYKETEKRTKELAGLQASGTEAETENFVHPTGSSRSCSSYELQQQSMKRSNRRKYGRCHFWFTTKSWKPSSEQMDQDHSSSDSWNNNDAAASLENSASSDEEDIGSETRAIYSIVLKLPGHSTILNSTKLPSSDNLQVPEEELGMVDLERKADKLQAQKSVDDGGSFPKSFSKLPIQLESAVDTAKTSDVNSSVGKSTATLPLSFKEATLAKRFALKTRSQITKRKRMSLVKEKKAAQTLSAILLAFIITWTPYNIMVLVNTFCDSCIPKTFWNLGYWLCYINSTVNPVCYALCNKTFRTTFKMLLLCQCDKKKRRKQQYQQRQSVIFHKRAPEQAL
Protocol: as §1, §2

human M5R = target: T3, human M5R (Homo sapiens, UniProt P08912); assay: [3H]Scopolamine radioligand competition binding at M5R
T3 construct: host or cells: HEK293 (CRL-1573, ATCC), transient
T3 sequence (P08912 1-532): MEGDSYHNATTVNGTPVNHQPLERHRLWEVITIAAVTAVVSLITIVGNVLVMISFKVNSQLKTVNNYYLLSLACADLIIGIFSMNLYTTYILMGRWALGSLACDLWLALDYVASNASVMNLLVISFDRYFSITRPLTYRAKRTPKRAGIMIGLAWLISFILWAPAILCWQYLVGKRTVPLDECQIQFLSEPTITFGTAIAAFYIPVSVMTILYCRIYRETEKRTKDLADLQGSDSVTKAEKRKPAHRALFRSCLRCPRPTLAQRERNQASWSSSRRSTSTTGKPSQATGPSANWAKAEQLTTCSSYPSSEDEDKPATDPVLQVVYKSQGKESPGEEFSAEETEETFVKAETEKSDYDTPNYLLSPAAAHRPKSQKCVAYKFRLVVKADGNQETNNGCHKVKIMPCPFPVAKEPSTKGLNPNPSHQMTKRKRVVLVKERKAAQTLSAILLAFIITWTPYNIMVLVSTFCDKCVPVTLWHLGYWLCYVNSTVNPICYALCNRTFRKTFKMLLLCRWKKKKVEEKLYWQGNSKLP
Protocol: as §1, §2

human M4R = target: T4, human M4R (Homo sapiens, UniProt P08173); assay: [3H]Scopolamine radioligand competition binding at M4R
T4 construct: host or cells: HEK293 (CRL-1573, ATCC), transient
T4 sequence (P08173 1-479): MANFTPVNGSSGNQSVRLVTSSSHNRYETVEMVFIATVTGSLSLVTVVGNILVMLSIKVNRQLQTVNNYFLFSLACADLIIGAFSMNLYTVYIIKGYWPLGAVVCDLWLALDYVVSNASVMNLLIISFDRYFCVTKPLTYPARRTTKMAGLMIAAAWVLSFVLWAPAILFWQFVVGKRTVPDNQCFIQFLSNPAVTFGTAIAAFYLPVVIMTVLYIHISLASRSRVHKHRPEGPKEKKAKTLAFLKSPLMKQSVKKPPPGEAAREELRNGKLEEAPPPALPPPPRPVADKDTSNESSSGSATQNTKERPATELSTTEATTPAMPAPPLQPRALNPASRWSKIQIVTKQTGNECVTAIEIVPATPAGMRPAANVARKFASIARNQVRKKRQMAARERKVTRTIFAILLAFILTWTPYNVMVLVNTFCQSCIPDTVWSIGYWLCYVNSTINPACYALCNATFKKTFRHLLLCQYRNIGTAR
Protocol: as §1, §2

human M1R = target: T5, human M1R (Homo sapiens, UniProt P11229); assay: biochemical; type: binding
T5 construct: host or cells: HEK293 (CRL-1573, ATCC), transient
T5 sequence (P11229 1-460): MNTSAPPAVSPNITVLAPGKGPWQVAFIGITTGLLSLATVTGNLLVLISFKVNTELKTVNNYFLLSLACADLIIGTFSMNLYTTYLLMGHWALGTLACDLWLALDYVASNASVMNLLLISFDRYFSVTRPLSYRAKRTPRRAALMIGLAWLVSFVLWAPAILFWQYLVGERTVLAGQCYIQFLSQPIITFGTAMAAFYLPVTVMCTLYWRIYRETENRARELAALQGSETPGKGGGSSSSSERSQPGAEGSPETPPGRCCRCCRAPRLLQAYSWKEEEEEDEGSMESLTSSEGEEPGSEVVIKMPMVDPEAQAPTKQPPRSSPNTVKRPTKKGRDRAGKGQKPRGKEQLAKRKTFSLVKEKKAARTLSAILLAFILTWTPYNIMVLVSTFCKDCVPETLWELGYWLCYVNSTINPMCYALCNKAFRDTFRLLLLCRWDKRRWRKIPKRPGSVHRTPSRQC
Protocol: as §1, §2

[2] = test system: mitochondrial activity and cellular membranes; details: reported by Wojcieszak et al.; cited from earlier work
human M1Rs = target: T6, human M1Rs (Homo sapiens, UniProt P11229); assay: M1R phosphoinositide hydrolysis (IP-One HTRF); type: cell-based
T6 construct: host or cells: HEK293 (CRL-1573, ATCC), transient
T6 sequence (P11229 1-460): T5 sequence (P11229 1-460)

M2Rs = target: T7, M2Rs (Homo sapiens, UniProt P08172); assay: M2R β-arrestin recruitment; type: cell-based
T7 sequence (P08172 1-466): T1 sequence (P08172 1-466)
Excerpt: Data are shown as normalized means (±SEM) of two, independent determinations, with oxotremorine tested at each concentration in duplicate and α-PHP tested in quadruplicate. [*Basal signaling is defined as the normalized RLU emitted by untreated cells.]

human M2R [3] = target: T1, human M2R; assay: M2R cAMP signaling (forskolin-stimulated cAMP, oxotremorine agonist); type: cell-based
Protocol: The M2R coupled to Gαi/o proteins, and its agonism functioned to decrease formation of the intracellular second messenger cyclic-adenosine-monophosphate (cAMP). […] In the presence of oxotremorine, an antagonist of the M2R would be expected to reverse the effects of the agonist, thereby increasing cAMP formation.
M2R cAMP Signaling: cAMP measurements were performed with the cAMP Hunter eXpress® CHRM2 CHO-K1 GPCR assay (Eurofins DiscoveRx, Fremont, Calif., USA) according to the manufacturer's protocol. Briefly, in the provided 96-well tissue culture-treated plate, 100 μL of human M2R expressing CHO-K1 cells were seeded in cell plating reagent and incubated (37° C., 5% CO2, 95% humidity) overnight. Cell plating reagent was replaced with 30 μL of cell assay buffer the next day. For agonist stimulation, cells were treated with increasing half-log unit concentrations of oxotremorine in the presence of 10 μM forskolin, followed by incubation for 30 minutes. A cAMP antibody, cAMP working detection solution and enzyme acceptor solution were then added according to the protocol, and the final chemiluminescent signals were detected by a Mithras LB 940 microplate reader (Berthold Technologies, Bad Wildbad, Germany). Antagonist tests were run by pretreating cells with increasing half-log unit concentrations of α-PHP, followed by incubation for one hour. Cells were then treated with EC80 concentration of oxotremorine (130 nM) and 10 μM forskolin. The same incubation and detection procedure used for agonist assays was used for the remaining steps.
as §2

[4] = 42 cases of intoxication, Beck et al. 2016; cited from earlier work
[5] = estimated pKi at M2R, estimate from 1 and 10 μM concentrations (N = 2), N.C. = <5% displacement of radioligand at 10 μM
[6] = estimate from 1 and 10 μM concentrations (N = 2), N.C. = <5% displacement of radioligand at 10 μM, read-out: estimated pKi at M1R (converted)
[7] = pKi at M2R, full dose-response [3H]Scopolamine competition binding, α-PPP and α-PBP interpolated
[8] = full dose-response [3H]Scopolamine competition binding, α-PPP and α-PBP interpolated, read-out: pKi at M1R (converted)

Compound | Ki (human M2R [1]; [5]) | Ki (human M3R) | Ki (human M5R) | Ki (human M4R) | Ki (human M1R; [8]) | further results
CCC(C(=O)c1ccc2c(c1)OCO2)N1CCCC1 (stereo not drawn) [MDPBP, 3,4-Methylenedioxy-α-pyrrolidinobutiophenone] | 12.6 µM | 14.5 µM | 18.2 µM | 10.2 µM | – | –
CCCCC(C(=O)c1ccc2c(c1)OCO2)N1CCCC1 (stereo not drawn) [MDPHP, 3,4-Methylenedioxy-α-pyrrolidinohexiophenone] | 5.01 µM | 25.7 µM | 7.94 µM | 12.9 µM | – | Ki (human M1R; estimate from 1 and 10 μM screens, read-out: estimated Ki at M1Rs): 3.63 µM
CCCCCC(C(=O)c1ccc2c(c1)OCO2)N1CCCC1 (stereo not drawn) [MDPHPP, 3,4-Methylenedioxy-α-pyrrolidinoheptaphenone] | 12 µM | 36.3 µM | 5.62 µM | 33.1 µM | – | Ki (human M1R; [6]): 6.03 µM
CCCC(C(=O)c1ccc2c(c1)OCO2)N1CCCC1 (centres unmarked) [MDPV, 3,4-Methylenedioxypyrovalerone] | 13.8 µM | 70.8 µM | 6.31 µM | 8.91 µM | – | Ki (human M1R; [6]): 8.71 µM; cytotoxicity (mitochondrial activity, cellular membrane damage) [2]: this effect was not observed
CNC(C)C(=O)c1ccccc1 (centres unmarked) [methcathinone] | – | – | – | – | – | cytotoxicity (mitochondrial activity, cellular membrane damage) [2]: these toxic effects were not observed
O=C1CCCN1CC#CCN1CCCC1 [oxotremorine, Oxotremorine] | – | – | – | – | – | pKi High at M2R (human M2R [1]; two-site model): 7.92±0.40; pKi Low at M2R (human M2R [1]; two-site model): 6.15±0.10; pKi High at M1R (human M1R): 7.62±0.36; pKi Low at M1R (human M1R): 5.41±0.04; EC80, IP1 production (human M1Rs): 0.5 µM; pEC, IP1 production (human M1Rs): 7.21±0.20; pEC50, β-arrestin recruitment (M2Rs): 5.71±0.11; pEC50, decrease of forskolin-stimulated cAMP production (human M2R [3]; 10 μM forskolin): 7.54±0.12; EC50 (human M2R [3]; 10 μM forskolin, read-out: EC50, decrease of forskolin-stimulated cAMP production): 0.029 µM; EC80, inhibition of cAMP formation (human M2R [3]; forskolin-stimulated): 0.13 µM
CCC(C(=O)c1ccccc1)N1CCCC1 (stereo not drawn) [α-PBP, α-Pyrrolidinobutiophenone] | – | – | – | – | 75.9 µM | Ki (human M2R [1]; [7]): 39.8 µM
CCCCCC(C(=O)c1ccccc1)N1CCCC1 (stereo not drawn) [α-PHPP, α-Pyrrolidinoheptaphenone] | – | 1.12 µM | 1.15 µM | 1.38 µM | 1.95 µM | Ki (human M2R [1]; [7]): 0.661 µM
CC(C(=O)c1ccccc1)N1CCCC1 (stereo not drawn) [α-PPP, α-Pyrrolidinopropiophenone] | – | – | – | – | 195 µM | Ki (human M2R [1]; Ki at M2Rs, full dose-response, interpolated): 73 µM; Ki (human M2R [1]; [7]): 75.9 µM
CCCCCCC(C(=O)c1ccccc1)N1CCCC1 (stereo not drawn) [α-PV9, α-Pyrrolidinooctanophenone] | – | – | – | – | – | cytotoxicity (mitochondrial activity, cellular membrane damage) [2]: potently decreased mitochondrial activity, and severely damaged cellular membranes
CCCC(C(=O)c1ccccc1)N1CCCC1 (stereo not drawn) [α-PVP, α-Pyrrolidinopentiophenone] | – | 6.03 µM | 4.17 µM | 8.13 µM | 5.13 µM | fold increase in M2R affinity compared to α-PBP (human M2R [1]): 49 fold; fold increase in M2R affinity compared to α-PPP (human M2R [1]): 89 fold; Ki (human M2R [1]; Ki at M2Rs, full dose-response [3H]Scopolamine competition binding): 0.824 µM; patients presenting with tachycardia [4]: 80%
